Assay results as given in patent EP0426029A1, “Injectable formulation for lipophilic drugs” (ABBOTT LABORATORIES, priority 1989, dated 1991).

Test system: mice
Test: Mouse scratch test (irritation/pain at the injection site)
Assay type: in vivo
Method: A scratch test was conducted in mice to measure the response to the sensation of irritation, i.e., the pain associated with an injection. Formulations were administered subcutaneously at a dose of 5 ml/kg to groups of mice (10/group) weighing 20 to 40 g each. The number of times that each mouse scratched the injection site was then counted for exactly five minutes.

CC[C@H]1OC(=O)[C@H](C)[C@@H](O[C@H]2C[C@@](C)(OC)[C@@H](O)[C@H](C)O2)[C@H](C)[C@@H](O[C@@H]2O[C@H](C)C[C@H](N(C)C)[C@H]2O)[C@](C)(OC)C[C@@H](C)C(=O)[C@H](C)[C@@H](O)[C@]1(C)O [Clarithromycin Lactobionate, Clarithromycin lactobionate]
No. of Scratches (Table I, subcutaneous, 5 ml/kg, mice (10/group), scratches of injection site counted for five minutes, 5 mg/ml in clarithromycin): 22.0 ± 7.2
NO. OF SCRATCHES (Table II, mouse scratch test, all solutions 5 mg/ml clarithromycin, pH as shown in formulation): 15.1 ± 4.4
